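Compound exposure: 48 hours, 5 concentrations, 96-well plates. Abbreviation: GI50, concentration required for 50% inhibition of growth. TGI: total growth inhibition.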
Experiments:
Experiment in all cases: NCI-60 cell line screen, 48 h
786-0 renal = system: 786-0 renal
A498 renal = system: A498 renal
A549 NSCLC = system: A549 NSCLC
ACHN renal = system: ACHN renal
BT-549 breast = system: BT-549 breast
CAKI-1 renal = system: CAKI-1 renal
CCRF-CEM leukemia = system: CCRF-CEM leukemia
COLO 205 colon = system: COLO 205 colon
DU-145 prostate = system: DU-145 prostate
EKVX NSCLC = system: EKVX NSCLC
HCC-2998 colon = system: HCC-2998 colon
HCT-116 colon = system: HCT-116 colon
HCT-15 colon = system: HCT-15 colon
HL-60(TB) leukemia = system: HL-60(TB) leukemia
HOP-62 NSCLC = system: HOP-62 NSCLC
HOP-92 NSCLC = system: HOP-92 NSCLC
HS 578T breast = system: HS 578T breast
HT29 colon = system: HT29 colon
IGROV1 ovarian = system: IGROV1 ovarian
K-562 leukemia = system: K-562 leukemia
KM12 colon = system: KM12 colon
LOX IMVI melanoma = system: LOX IMVI melanoma
M14 melanoma = system: M14 melanoma
MALME-3M melanoma = system: MALME-3M melanoma
MCF7 breast = system: MCF7 breast
MDA-MB-231 breast = system: MDA-MB-231 breast
MDA-MB-435 = system: MDA-MB-435
MDA-MB-468 breast = system: MDA-MB-468 breast
MOLT-4 leukemia = system: MOLT-4 leukemia
NCI-H226 lung = system: NCI-H226 lung
NCI-H23 lung = system: NCI-H23 lung
NCI-H460 lung = system: NCI-H460 lung
NCI-H522 lung = system: NCI-H522 lung
OVCAR-3 ovarian = system: OVCAR-3 ovarian
OVCAR-4 ovarian = system: OVCAR-4 ovarian
OVCAR-5 ovarian = system: OVCAR-5 ovarian
OVCAR-8 ovarian = system: OVCAR-8 ovarian
PC-3 prostate = system: PC-3 prostate
RPMI-8226 leukemia = system: RPMI-8226 leukemia
RXF 393 renal = system: RXF 393 renal
SF-268 CNS = system: SF-268 CNS
SF-295 CNS = system: SF-295 CNS
SF-539 CNS = system: SF-539 CNS
SK-MEL-2 melanoma = system: SK-MEL-2 melanoma
SK-MEL-28 melanoma = system: SK-MEL-28 melanoma
SK-MEL-5 melanoma = system: SK-MEL-5 melanoma
SK-OV-3 ovarian = system: SK-OV-3 ovarian
SN12C renal = system: SN12C renal
SNB-19 CNS = system: SNB-19 CNS
SNB-75 CNS = system: SNB-75 CNS
SR leukemia = system: SR leukemia
SW-620 colon = system: SW-620 colon
T-47D breast = system: T-47D breast
TK-10 renal = system: TK-10 renal
U251 CNS = system: U251 CNS
UACC-257 melanoma = system: UACC-257 melanoma
UACC-62 melanoma = system: UACC-62 melanoma
UO-31 renal = system: UO-31 renal

## O=C(c1ccc(Cl)cc1)C1[C@H](c2ccccc2Br)[C@@H](c2ccccc2)NC12C(=O)Nc1ccccc12 (stereo partly specified)
786-0 renal
  GI50: 7.3 µM
  TGI: 21.9 µM
A498 renal
  GI50: 8.75 µM
  TGI: 21.6 µM
A549 NSCLC
  GI50: 2.71 µM
  TGI: 25 µM
ACHN renal
  GI50: 6.01 µM
  TGI: 44.4 µM
BT-549 breast
  GI50: 2.4 µM
  TGI: 10.5 µM
CAKI-1 renal
  GI50: 1.67 µM
  TGI: > 56 µM
CCRF-CEM leukemia
  GI50: 3.27 µM
  TGI: 29.8 µM
COLO 205 colon
  GI50: 7.71 µM
  TGI: 15.6 µM
DU-145 prostate
  GI50: 2.66 µM
  TGI: 16.4 µM
EKVX NSCLC
  GI50: 6.22 µM
  TGI: > 56 µM
HCC-2998 colon
  GI50: 6.32 µM
  TGI: 17.8 µM
HCT-116 colon
  GI50: 2.15 µM
  TGI: 9.06 µM
HCT-15 colon
  GI50: 4.03 µM
  TGI: > 56 µM
HL-60(TB) leukemia
  GI50: 1.92 µM
  TGI: 19.1 µM
HOP-62 NSCLC
  GI50: 6.54 µM
  TGI: 16.5 µM
HOP-92 NSCLC
  GI50: 2.06 µM
  TGI: 14.5 µM
HS 578T breast
  GI50: 2.51 µM
  TGI: 15.6 µM
HT29 colon
  GI50: 2.46 µM
  TGI: 9.82 µM
IGROV1 ovarian
  GI50: 5.92 µM
  TGI: 26.1 µM
K-562 leukemia
  GI50: 2.04 µM
  TGI: 28.3 µM
KM12 colon
  GI50: 7.5 µM
  TGI: 25.2 µM
LOX IMVI melanoma
  GI50: 1.99 µM
  TGI: 8.86 µM
M14 melanoma
  GI50: 4.86 µM
  TGI: 13.7 µM
MALME-3M melanoma
  GI50: 6.46 µM
  TGI: 14.5 µM
MCF7 breast
  GI50: 1.81 µM
  TGI: > 56 µM
MDA-MB-231 breast
  GI50: 1.72 µM
  TGI: 7.13 µM
MDA-MB-435
  GI50: 2.58 µM
  TGI: 10.8 µM
MDA-MB-468 breast
  GI50: 1.11 µM
  TGI: 3.33 µM
MOLT-4 leukemia
  GI50: 2.06 µM
  TGI: 18.5 µM
NCI-H226 lung
  GI50: 3.85 µM
  TGI: 13.6 µM
NCI-H23 lung
  GI50: 5.78 µM
  TGI: 17.3 µM
NCI-H460 lung
  GI50: 2.3 µM
  TGI: 11.2 µM
NCI-H522 lung
  GI50: 1.3 µM
  TGI: 5.72 µM
OVCAR-3 ovarian
  GI50: 2.39 µM
  TGI: 14 µM
OVCAR-4 ovarian
  GI50: 7.11 µM
  TGI: > 56 µM
OVCAR-5 ovarian
  GI50: 6.34 µM
  TGI: 29.7 µM
OVCAR-8 ovarian
  GI50: 6.72 µM
  TGI: 19.9 µM
PC-3 prostate
  GI50: 2.03 µM
  TGI: 18.6 µM
RPMI-8226 leukemia
  GI50: 5.43 µM
  TGI: 32.6 µM
RXF 393 renal
  GI50: 1.77 µM
  TGI: 7.57 µM
SF-268 CNS
  GI50: 2.92 µM
  TGI: 40.2 µM
SF-295 CNS
  GI50: 3.79 µM
  TGI: 15.2 µM
SF-539 CNS
  GI50: 7.14 µM
  TGI: 15.7 µM
SK-MEL-2 melanoma
  GI50: 4.44 µM
  TGI: 11.9 µM
SK-MEL-28 melanoma
  GI50: 7.44 µM
  TGI: 16.3 µM
SK-MEL-5 melanoma
  GI50: 2.42 µM
  TGI: 9.07 µM
SK-OV-3 ovarian
  GI50: 3.87 µM
  TGI: 37 µM
SN12C renal
  GI50: 2.74 µM
  TGI: 10 µM
SNB-19 CNS
  GI50: 10.8 µM
  TGI: > 56 µM
SNB-75 CNS
  GI50: 0.765 µM
  TGI: 27.9 µM
SR leukemia
  GI50: 2 µM
  TGI: 14 µM
SW-620 colon
  GI50: 3.43 µM
  TGI: 33.9 µM
T-47D breast
  GI50: 3.46 µM
  TGI: 49 µM
TK-10 renal
  GI50: 9.48 µM
  TGI: 40.7 µM
U251 CNS
  GI50: 3.16 µM
  TGI: 16 µM
UACC-257 melanoma
  GI50: 4.84 µM
  TGI: 20.7 µM
UACC-62 melanoma
  GI50: 2.11 µM
  TGI: 8.87 µM
UO-31 renal
  GI50: 2.49 µM
  TGI: 29.3 µM
